From patent publication US20230072683A1, “PYRIDO-PYRIMIDIN DERIVATIVES AND PHARMACEUTICAL COMPOSITION, FOR USE IN PREVENTING OR TREATING PI3 KINASE RELATED DISEASES, COMPRISING SAME AS ACTIVE INGREDIENT” (BORYUNG PHARMACEUTICAL CO., LTD, priority 2019, published 2023)
Where two headings read alike, the source gives them in different places.

Columns and labels:
[1] = target: DNA-PK(h) (Homo sapiens, UniProt P78527); assay: Evaluation of inhibitory activity against DNA-PK (HTRF kinase assay, GST-cMyc-p53 substrate); assay type: biochemical; conditions: for inhibition at 0.01 µM: compound concentration 0.01 μM, read-out: EXP_VALUE(% Inhibition) DNA-PK(h) 0.01 μM; for inhibition at 0.1 µM: read-out: EXP_VALUE(% Inhibition) DNA-PK(h) 0.1 μM
In short: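 Human DNA-PK with 50 μM GST-cMyc-p53 substrate; reaction started with Mg/ATP, run 30 min at room temperature, stopped with EDTA. Phospho-Ser15 p53 detected by HTRF (Eu anti-phospho-Ser15, d2 anti-GST), signal = 10000×(Em 665/Em 620).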

[2] = target: PI3K-δ (PI3K(p1108/p857) (h)) (Homo sapiens, UniProt O00329); assay: Evaluation of inhibitory activity against PI3K-δ (HTRF kinase assay); assay type: biochemical; conditions: for inhibition at 0.01 µM: compound concentration 0.01 μM, read-out: EXP_VALUE(% Inhibition) PI3K-δ 0.01 μM; for inhibition at 0.1 µM: read-out: EXP_VALUE(% Inhibition) PI3K-δ 0.1 μM
Chain of PI3K-δ (PI3K(p1108/p857) (h)) (O00329 whole entry, the tested form may be a part): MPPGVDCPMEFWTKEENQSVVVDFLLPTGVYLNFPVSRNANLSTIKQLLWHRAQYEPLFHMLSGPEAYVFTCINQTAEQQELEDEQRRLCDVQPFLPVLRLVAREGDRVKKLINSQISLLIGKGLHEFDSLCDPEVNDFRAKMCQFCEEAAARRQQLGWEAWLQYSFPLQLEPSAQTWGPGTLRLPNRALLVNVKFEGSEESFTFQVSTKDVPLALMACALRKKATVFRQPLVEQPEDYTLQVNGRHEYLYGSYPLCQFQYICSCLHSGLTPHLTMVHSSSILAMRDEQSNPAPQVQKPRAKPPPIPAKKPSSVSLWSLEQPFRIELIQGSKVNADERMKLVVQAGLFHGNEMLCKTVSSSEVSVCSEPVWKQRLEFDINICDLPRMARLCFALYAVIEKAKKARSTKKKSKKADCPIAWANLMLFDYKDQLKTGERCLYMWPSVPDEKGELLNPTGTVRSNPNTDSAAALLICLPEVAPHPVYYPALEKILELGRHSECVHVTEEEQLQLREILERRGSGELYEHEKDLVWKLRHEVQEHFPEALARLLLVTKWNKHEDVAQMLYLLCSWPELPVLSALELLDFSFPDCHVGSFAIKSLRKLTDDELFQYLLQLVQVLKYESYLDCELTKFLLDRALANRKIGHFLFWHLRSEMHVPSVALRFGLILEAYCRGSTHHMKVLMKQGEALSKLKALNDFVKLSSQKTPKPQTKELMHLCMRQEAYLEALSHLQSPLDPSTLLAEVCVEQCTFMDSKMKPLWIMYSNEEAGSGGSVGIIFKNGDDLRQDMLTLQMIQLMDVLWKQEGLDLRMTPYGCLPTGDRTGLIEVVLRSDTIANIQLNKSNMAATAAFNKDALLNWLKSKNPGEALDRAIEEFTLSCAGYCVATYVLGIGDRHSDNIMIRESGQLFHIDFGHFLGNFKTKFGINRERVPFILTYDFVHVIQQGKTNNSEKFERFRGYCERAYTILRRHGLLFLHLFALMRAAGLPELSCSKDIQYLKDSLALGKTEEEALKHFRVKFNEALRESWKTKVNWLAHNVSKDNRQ
Chain of PI3K-δ (PI3K(p1108/p857) (h)) (P27986 whole entry partner, the tested form may be a part): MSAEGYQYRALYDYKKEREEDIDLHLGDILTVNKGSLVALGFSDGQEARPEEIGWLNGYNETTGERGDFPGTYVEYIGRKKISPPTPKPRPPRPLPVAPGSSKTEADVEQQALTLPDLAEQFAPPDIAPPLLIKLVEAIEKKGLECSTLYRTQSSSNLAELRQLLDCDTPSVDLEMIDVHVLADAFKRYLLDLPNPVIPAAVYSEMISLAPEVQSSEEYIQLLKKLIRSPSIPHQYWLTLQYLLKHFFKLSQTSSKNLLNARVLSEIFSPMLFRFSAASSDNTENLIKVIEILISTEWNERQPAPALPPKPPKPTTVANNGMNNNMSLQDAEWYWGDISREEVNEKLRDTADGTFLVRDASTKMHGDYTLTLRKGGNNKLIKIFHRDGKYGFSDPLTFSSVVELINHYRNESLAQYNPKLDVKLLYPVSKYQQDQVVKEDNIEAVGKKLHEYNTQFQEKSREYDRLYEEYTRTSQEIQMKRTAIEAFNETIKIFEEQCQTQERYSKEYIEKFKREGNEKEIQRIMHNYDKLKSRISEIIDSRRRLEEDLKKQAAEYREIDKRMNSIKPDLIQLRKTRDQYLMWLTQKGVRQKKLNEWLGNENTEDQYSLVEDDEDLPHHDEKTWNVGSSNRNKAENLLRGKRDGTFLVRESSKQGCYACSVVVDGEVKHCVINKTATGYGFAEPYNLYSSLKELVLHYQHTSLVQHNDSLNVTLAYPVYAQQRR
In short: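 HTRF read-out (665/620 nm ratio ×10000) used Eu-labelled anti-GST, GST-tagged GRP1 PH domain and streptavidin-allophycocyanin after EDTA/PIP3 stop.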

SMILES	inhibition at 0.01 µM [1] [%]	inhibition at 0.1 µM ([1]; compound concentration 0.1 μM) [%]	inhibition at 0.01 µM [2] [%]	inhibition at 0.1 µM ([2]; compound concentration 0.1 μM) [%]	inhibition at 0.1 µM ([1]; compound at 0.1 μM) [%]	inhibition at 0.1 µM ([2]; compound at 0.1 μM) [%]
C[C@H](Nc1ncnc2[nH]ccc(=O)c12)c1c(Cl)c2cccc(-c3ccc4nccnc4c3)c2c(=O)n1-c1ccccc1 [Example 137, (S)-4-((1-(4-chloro-1-oxo-2-phenyl-8-(quinoxalin-6-yl)-1,2-dihydroisoquinolin-3-yl)ethyl)amino)pyrido[2,3-d]pyrimidin-5(8H)-one]	87	100	84	92		
COc1cc(-c2cccc3c(Cl)c([C@H](C)Nc4ncnc5[nH]ccc(=O)c45)n(-c4ccccc4)c(=O)c23)cc(OC)c1C [Example 177, (S)-4-((1-(4-chloro-8-(3,5-dimethoxy-4-methylphenyl)-1-oxo-2-phenyl-1,2-dihydroisoquinolin-3-yl)ethyl)amino)pyrido[2,3-d]pyrimidin-5(8H)-one]	54		28			
C[C@H](Nc1ncnc2[nH]ccc(=O)c12)c1c(Cl)c2cccc(N(C)Cc3ccc4ccccc4c3)c2c(=O)n1-c1ccccc1 [Example 334, (S)-4-((1-(4-chloro-8-(methyl(naphthalen-2-ylmethyl)amino)-1-oxo-2-phenyl-1,2-dihydroisoquinolin-3-yl)ethyl)amino)pyrido[2,3-d]pyrimidin-5(8H)-one]	10	27	9	49		
C[C@H](Nc1ncnc2[nH]ccc(=O)c12)c1cc2cccc(-c3cnc(C(F)(F)F)nc3)c2c(=O)n1-c1ccccc1 [Example 385, (S)-4-((1-(1-oxo-2-phenyl-8-(2-(trifluoromethyl)pyrimidin-5-yl)-1,2-dihydroisoquinolin-3-yl)ethyl)amino)pyrido[2,3-d]pyrimidin-5(8H)-one]					4	75
C[C@H](Nc1ncnc2[nH]ccc(=O)c12)c1c(Cl)c2cccc(-c3ccc4nsnc4c3)c2c(=O)n1-c1ccccc1 [Example 233, (S)-4-((1-(8-(benzo[c][1,2,5]thiadiazol-5-yl)-4-chloro-1-oxo-2-phenyl-1,2-dihydroisoquinolin-3-yl)ethyl)amino)pyrido[2,3-d]pyrimidin-5(8H)-one]	60		77			
COc1ncc(-c2cccc3c(Cl)c([C@H](C)Nc4ncnc5[nH]ccc(=O)c45)n(-c4ccccc4)c(=O)c23)cc1NS(=O)(=O)c1ccc(F)cc1F [Example 232, (S)—N-(5-(4-chloro-1-oxo-3-(1-((5-oxo-5,8-dihydropyrido[2,3-d]pyrimidin-4-yl)amino)ethyl)-2-phenyl-1,2-dihydroisoquinolin-8-yl)-2-methoxypyridin-3-yl)-2,4-difluorobenzenesulfonamide]	15		23			
COc1ncc(-c2cccc3c(Cl)c([C@H](C)Nc4ncnc5[nH]ccc(=O)c45)n(-c4ccccc4)c(=O)c23)cc1F [Example 186, (S)-4-((1-(4-chloro-8-(5-fluoro-6-methoxypyridin-3-yl)-1-oxo-2-phenyl-1,2-dihydroisoquinolin-3-yl)ethyl)amino)pyrido[2,3-d]pyrimidin-5(8H)-one]	49		94			
COc1cc(-c2cccc3cc([C@H](C)Nc4ncnc5[nH]ccc(=O)c45)n(-c4ccccc4)c(=O)c23)ccc1Cl [Example 100, (S)-4-((1-(8-(4-chloro-3-methoxyphenyl)-1-oxo-2-phenyl-1,2-dihydroisoquinolin-3-yl)ethyl)amino)pyrido[2,3-d]pyrimidin-5(8H)-one]	17	54	82	104		
C[C@H](Nc1ncnc2[nH]ccc(=O)c12)c1c(Cl)c2cccc(-c3cccc(F)c3Cl)c2c(=O)n1-c1ccccc1 [Example 106, (S)-4-((1-(4-chloro-8-(2-chloro-3-fluorophenyl)-1-oxo-2-phenyl-1,2-dihydroisoquinolin-3-yl)ethyl)amino)pyrido[2,3-d]pyrimidin-5(8H)-one]	14	59	53	87		

The next lines start with the values.

inhibition at 0.01 µM [1] [%]	inhibition at 0.1 µM ([1]; compound concentration 0.1 μM) [%]	inhibition at 0.01 µM [2] [%]	inhibition at 0.1 µM ([2]; compound concentration 0.1 μM) [%]	inhibition at 0.1 µM ([1]; compound at 0.1 μM) [%]	inhibition at 0.1 µM ([2]; compound at 0.1 μM) [%]	SMILES
26	74	29	81			C[C@H](Nc1ncnc2[nH]ccc(=O)c12)c1c(Cl)c2cccc(-c3ccc(C4CCC4)cc3)c2c(=O)n1-c1ccccc1 [Example 118, (S)-4-((1-(4-chloro-8-(4-cyclobutylphenyl)-1-oxo-2-phenyl-1,2-dihydroisoquinolin-3-yl)ethyl)amino)pyrido[2,3-d]pyrimidin-5(8H)-one]
50	87	67	97			C=Cc1cccc2c(Cl)c([C@H](C)Nc3ncnc4[nH]ccc(=O)c34)n(-c3ccccc3)c(=O)c12 [Example 142, (S)-4-((1-(4-chloro-1-oxo-2-phenyl-8-vinyl-1,2-dihydroisoquinolin-3-yl)ethyl)amino)pyrido[2,3-d]pyrimidin-5(8H)-one]
13	12	86	101			C[C@H](Nc1ncnc2[nH]ccc(=O)c12)c1c(Cl)c2cccc(-c3ccc[nH]3)c2c(=O)n1-c1ccccc1 [Example 258, (S)-4-((1-(4-chloro-1-oxo-2-phenyl-8-(1H-pyrrol-2-yl)-1,2-dihydroisoquinolin-3-yl)ethyl)amino)pyrido[2,3-d]pyrimidin-5(8H)-one]
				23	0	CC(C)Sc1cccc2c(Cl)c([C@H](C)Nc3ncnc4[nH]ccc(=O)c34)n(-c3ccccc3)c(=O)c12 [Example 415, (S)-4-((1-(4-chloro-8-(isopropylthio)-1-oxo-2-phenyl-1,2-dihydroisoquinolin-3-yl)ethyl)amino)pyrido[2,3-d]pyrimidin-5(8H)-one]
15	73	40	70			C[C@H](Nc1ncnc2[nH]ccc(=O)c12)c1c(Cl)c2cccc(N3CCC(N4CCCCC4)CC3)c2c(=O)n1-c1ccccc1 [Example 10, (S)-4-((1-(8-([1,4′-bipiperidin]-1′-yl)-4-chloro-1-oxo-2-phenyl-1,2-dihydroisoquinolin-3-yl)ethyl)amino)pyrido[2,3-d]pyrimidin-5(8H)-one]
28		11				C[C@H](Nc1ncnc2[nH]ccc(=O)c12)c1c(Cl)c2cccc(Nc3cccnc3)c2c(=O)n1-c1ccccc1 [Example 347, (S)-4-((1-(4-chloro-1-oxo-2-phenyl-8-(pyridin-3-ylamino)-1,2-dihydroisoquinolin-3-yl)ethyl)amino)pyrido[2,3-d]pyrimidin-5(8H)-one]
				18	24	CC[S@@](=N)(=O)c1cccc2c(Cl)c([C@H](C)Nc3ncnc4[nH]ccc(=O)c34)n(-c3ccccc3)c(=O)c12 [Example 435, 4-(((S)-1-(4-chloro-8-((R)-ethylsulfonimidoyl)-1-oxo-2-phenyl-1,2-dihydroisoquinolin-3-yl)ethyl)amino)pyrido[2,3-d]pyrimidin-5(8H)-one]
31	79	38	83			C[C@H](Nc1ncnc2[nH]ccc(=O)c12)c1c(Cl)c2cccc(-c3ccc(N4CCCC4)cc3)c2c(=O)n1-c1ccccc1 [Example 87, (S)-4-((1-(4-chloro-1-oxo-2-phenyl-8-(4-(pyrrolidin-1-yl)phenyl)-1,2-dihydroisoquinolin-3-yl)ethyl)amino)pyrido[2,3-d]pyrimidin-5(8H)-one]
46		71				C[C@H](Nc1ncnc2[nH]ccc(=O)c12)c1c(Cl)c2ccccc2c(=O)n1-c1ccccc1 [Example 38, (S)-4-((1-(4-chloro-1-oxo-2-phenyl-1,2-dihydroisoquinolin-3-yl)ethyl)amino)pyrido[2,3-d]pyrimidin-5(8H)-one]
				48	26	C[C@H](Nc1ncnc2[nH]ccc(=O)c12)c1c(Cl)c2cccc(Sc3nccs3)c2c(=O)n1-c1ccccc1 [Example 417, (S)-4-((1-(4-chloro-1-oxo-2-phenyl-8-(thiazol-2-ylthio)-1,2-dihydroisoquinolin-3-yl)ethyl)amino)pyrido[2,3-d]pyrimidin-5(8H)-one]
50		11				C[C@H](Nc1ncnc2[nH]ccc(=O)c12)c1c(Cl)c2cccc(NC(=O)C3CCC3)c2c(=O)n1-c1ccccc1 [Example 298, (S)—N-(4-chloro-1-oxo-3-(1-((5-oxo-5,8-dihydropyrido[2,3-d]pyrimidin-4-yl)amino)ethyl)-2-phenyl-1,2-dihydroisoquinolin-8-yl)cyclobutanecarboxamide]
36		44				C[C@H](Nc1ncnc2[nH]ccc(=O)c12)c1c(Cl)c2cccc(/C=N/O)c2c(=O)n1-c1ccccc1 [Example 273, (S,E)-4-chloro-1-oxo-3-(1-((5-oxo-5,8-dihydropyrido[2,3-d]pyrimidin-4-yl)amino)ethyl)-2-phenyl-1,2-dihydroisoquinoline-8-carbaldehyde oxime]
